Where two headings read alike, the source gives them in different places.
Legend:
[1] = system: dulcitol accumulation in the sciatic nerve; experiment: % lowering of dulcitol accumulation in sciatic nerve (N) of galactosemic rats; assay type: in vivo, Sprague-Dawley; set-up: key: NS: statistically nonsignificant change; conditions: 4 days
Source text: (§1) The aldose reductase inhibiting property of the compounds of this invention and the utilization of the compounds in preventing, diminishing and alleviating diabetic complications are demonstrable in experiments using galactosemic rats, see Dvornik et al., Science, 182, 1146 (1973). Such experiments are exemplified hereinbelow after the listing of the following general comments pertaining to these experiments:
(§2) (a) Four or more groups of six male rats, 50-70 g, Sprague-Dawley strain, were used. The first group, the control group, was fed a mixture of laboratory chow (rodent Laboratory Chow, Purina) and glucose at 20% (w/w %) concentration. An untreated galactosemic group was fed a similar diet in which galactose was substituted for glucose. The third group was fed a diet prepared by mixing a given amount of the test compound with the galactose containing diet. The concentration of galactose in the diet of the treated groups was the same as that for the untreated galactosemic group.
(§3) (b) After four days, the animals were killed by euthanization. Both the lens and sciatic nerve were removed, weighed and stored frozen for polyol determination.
(§4) (c) The polyol determination was performed by a modification of the procedure of M. Kraml and L. Cosyns, Clin. Biochem., 2,373 (1969). Only two minor reagent changes were made: (a) The rinsing mixture was an aqueous 5% (w/v) trichloroacetic acid solution and (b) the stock solution was prepared by dissolving 25 mg of dulcitol in 100 ml of an aqueous trichloroacetic acid solution. [N.B.: For each experiment the average value found in the tissue from rats fed the glucose diet was subtracted from the individual values found in the corresponding tissue in galactose-fed rats to obtain the amount of polyol accumulated.] The aldose reductase inhibiting effects of the compounds of formula (I) were also tested by employing an in vitro testing procedure similar to that described by S. Hayman and J.H. Kinoshita, J. Biol. Chem., 240,877 (1965). In the present case the procedure of Hayman and Kinoshita was modified in that the final chromatography step was omitted in the preparation of the enzyme from bovine lens.
(§5) The figures under L and N represent the percentage decrease of dulcitol accumulation in the tissues of the lens and sciatic nerve, respectively, for treated rats as compared to untreated rats.

aldose reductase = target: T1, aldose reductase (Bos taurus, UniProt P16116); experiment: in vitro aldose reductase inhibition (modified Hayman and Kinoshita; enzyme from bovine lens); assay type: biochemical; conditions: read-out: % Inhibition IN VITRO
T1 construct: preparation of the enzyme from bovine lens; from tissue; host or cells: bovine lens
Method: Only two minor reagent changes were made: (a) The rinsing mixture was an aqueous 5% (w/v) trichloroacetic acid solution and (b) the stock solution was prepared by dissolving 25 mg of dulcitol in 100 ml of an aqueous trichloroacetic acid solution. [N.B.: For each experiment the average value found in the tissue from rats fed the glucose diet was subtracted from the individual values found in the corresponding tissue in galactose-fed rats to obtain the amount of polyol accumulated.] […] In the present case the procedure of Hayman and Kinoshita was modified in that the final chromatography step was omitted in the preparation of the enzyme from bovine lens. […] The figures under L and N represent the percentage decrease of dulcitol accumulation in the tissues of the lens and sciatic nerve, respectively, for treated rats as compared to untreated rats.

[2] = system: dulcitol accumulation in the lens; experiment: % lowering of dulcitol accumulation in lens (L) of galactosemic rats; assay type: in vivo, Sprague-Dawley; set-up: key: NS: statistically nonsignificant change; conditions: 4 days
Source text: as §1, §2, §3, §4, §5

SMILES: O=C1C[C@]2(C(=O)N1)C(=O)N(Cc1ccc(Br)cc1F)C(=O)c1ccc(F)cc12 [(S)-(-)-[2-[(4-Bromo-2-fluorophenyl)methyl]-6-fluoro]spiro[isoquinoline-4(1H),3'-pyrrolidine]-1,2',3,5'(2H)-tetrone]
- % Lowering Dulcitol Accumulation IN VIVO, N (sciatic nerve) ([1]; 0.4 mg/kg in diet): 40%
- % Lowering Dulcitol Accumulation IN VIVO, N (sciatic nerve) ([1]; 0.8 mg/kg in diet): 70%
- inhibition at 0.04 µM (aldose reductase): 29%
- inhibition at 0.1 µM (aldose reductase): 46%
- inhibition at 1 µM (aldose reductase): 97%
- inhibition at 10 µM (aldose reductase): 98%
- % Lowering Dulcitol Accumulation IN VIVO, L (lens) ([2]; 0.4 mg/kg in diet): NS
- % Lowering Dulcitol Accumulation IN VIVO, L (lens) ([2]; 0.8 mg/kg in diet): 21%

SMILES: CN1C(=O)c2cc(Cl)ccc2C2(CC(=O)NC2=O)C1=O (stereo not shown) [H 7-Cl CH3, 7-Chloro-2-methylspiro[isoquinoline-4(1H)3'-pyrrolidine]-1,2',3,5'(2H)-tetrone]
- % Lowering Dulcitol Accumulation IN VIVO, N (sciatic nerve) ([1]; 3.0 mg/kg in diet): 21%
- inhibition at 0.04 µM (aldose reductase; 4 × 10^-8 M): 34%
- inhibition at 10 µM (aldose reductase; 10^-5 M): 95%
- inhibition at 1 µM (aldose reductase; 10^-6 M): 92%
- inhibition at 0.1 µM (aldose reductase; 10^-7 M): 61%
- % Lowering Dulcitol Accumulation IN VIVO, L (lens) ([2]; 3.0 mg/kg in diet): 14%

SMILES: CCCN1C(=O)c2ccccc2C2(CC(=O)NC2=O)C1=O (stereo not shown) [H H (CH2)2 CH3, 2-Propylspiro[isoquinoline-4(1H),3'-pyrrolidine]-1,2',3,5'(2H)-tetrone]
- % Lowering Dulcitol Accumulation IN VIVO, N (sciatic nerve) ([1]; 11 mg/kg in diet): NS
- inhibition at 0.04 µM (aldose reductase; 4 × 10^-8 M): 8%
- inhibition at 1 µM (aldose reductase; 10^-6 M): 62%
- inhibition at 0.1 µM (aldose reductase; 10^-7 M): 19%
- inhibition at 10 µM (aldose reductase): 94%
- % Lowering Dulcitol Accumulation IN VIVO, L (lens) ([2]; 11 mg/kg in diet): NS

SMILES: CCCCN1C(=O)c2ccccc2C2(CC(=O)NC2=O)C1=O (stereo not shown) [H H (CH2)3 CH3, 2-Butylspiro[isoquinoline-4(1H),3'-pyrrolidine]-1,2',3,5'(2H)-tetrone]
- % Lowering Dulcitol Accumulation IN VIVO, N (sciatic nerve) ([1]; 10.0 mg/kg in diet): NS
- inhibition at 0.04 µM (aldose reductase; 4 × 10^-8 M): 19%
- inhibition at 10 µM (aldose reductase; 10^-5 M): 99%
- inhibition at 0.1 µM (aldose reductase; 10^-7 M): 17%
- inhibition at 1 µM (aldose reductase): 86%
- % Lowering Dulcitol Accumulation IN VIVO, L (lens) ([2]; 10.0 mg/kg in diet): NS

SMILES: CCN1C(=O)c2ccccc2C2(CC(=O)NC2=O)C1=O (stereo not shown) [H H CH2 CH3, 2-Ethylspiro[isoquinoline-4(1H),3'-pyrrolidine]-1,2',3,5'(2H)-tetrone]
- % Lowering Dulcitol Accumulation IN VIVO, N (sciatic nerve) ([1]; 11 mg/kg in diet): NS
- inhibition at 0.04 µM (aldose reductase; 4 × 10^-8 M): 17%
- inhibition at 1 µM (aldose reductase; 10^-6 M): 76%
- inhibition at 0.1 µM (aldose reductase; 10^-7 M): 27%
- inhibition at 10 µM (aldose reductase): 96%
- % Lowering Dulcitol Accumulation IN VIVO, L (lens) ([2]; 11 mg/kg in diet): NS

SMILES: CN1C(=O)c2ccccc2C2(CC(=O)NC2=O)C1=O (stereo not shown) [H H CH3, 2-Methylspiro[isoquinoline-4(1H),3'-pyrrolidine]-1,2',3,5'(2H)-tetrone]
- % Lowering Dulcitol Accumulation IN VIVO, N (sciatic nerve) ([1]; 1.0 mg/kg in diet): 37.0%
- % Lowering Dulcitol Accumulation IN VIVO, N (sciatic nerve) ([1]; 3.0 mg/kg in diet): 66.0%
- % Lowering Dulcitol Accumulation IN VIVO, N (sciatic nerve) ([1]; 10.0 mg/kg in diet): 79.0%
- % Lowering Dulcitol Accumulation IN VIVO, N (sciatic nerve) ([1]; 43.0 mg/kg in diet): 89.0%
- inhibition at 10 µM (aldose reductase; 10^-5 M): 95%
- inhibition at 1 µM (aldose reductase; 10^-6 M): 91%
- inhibition at 0.1 µM (aldose reductase; 10^-7 M): 63%
- inhibition at 0.04 µM (aldose reductase): 38%
- % Lowering Dulcitol Accumulation IN VIVO, L (lens) ([2]; 1.0 mg/kg in diet): 15.0%
- % Lowering Dulcitol Accumulation IN VIVO, L (lens) ([2]; 3.0 mg/kg in diet): 43.0%
- % Lowering Dulcitol Accumulation IN VIVO, L (lens) ([2]; 10.0 mg/kg in diet): 62.0%
- % Lowering Dulcitol Accumulation IN VIVO, L (lens) ([2]; 43.0 mg/kg in diet): 86.0%

SMILES: O=C1CC2(C(=O)N1)C(=O)N(Cc1ccc(Br)cc1F)C(=O)c1cccc(F)c12 (stereo not shown) [[2-[(4-Bromo-2-fluorophenyl)methyl]-5-fluoro]spiro[isoquinoline-4(1H),3'-pyrrolidine]-1,2',3,5'(2H)-tetrone]
- % Lowering Dulcitol Accumulation IN VIVO, N (sciatic nerve) ([1]; 0.5 mg/kg in diet): 52.5%
- % Lowering Dulcitol Accumulation IN VIVO, N (sciatic nerve) ([1]; 1.0 mg/kg in diet): 77.0%
- inhibition at 0.04 µM (aldose reductase; 4 × 10^-8 M): 44%
- inhibition at 10 µM (aldose reductase; 10^-5 M): 98%
- inhibition at 1 µM (aldose reductase; 10^-6 M): 98%
- inhibition at 0.1 µM (aldose reductase; 10^-7 M): 92%
- % Lowering Dulcitol Accumulation IN VIVO, L (lens) ([2]; 0.5 mg/kg in diet): 14.2%
- % Lowering Dulcitol Accumulation IN VIVO, L (lens) ([2]; 1.0 mg/kg in diet): 23.9%

From US4927831A, “Spiro-isoquinoline-pyrrolidine tetrones and analogs thereof useful as aldose reductase inhibitors” (American Home Products, priority 1989, dated 1990)
